Reference: patent US20240025907A1, “QUINAZOLINE PAN-KRas INHIBITORS” (Mirati Therapeutics, Inc., priority 2022, published 2024)
Like-named read-outs stand apart in the source and are kept apart here.

Experiments:
Format in all cases: cell-based
[1] = test system: KRas-mediated Phosphorylation of ERK in A549 cells; experiment: Cisbio HTRF pERK assay, A549 cells; details: A549 cells, 3 hrs compound, read-out: Inhibition (HTRF IC50 nM) of KRas-mediated Phosphorylation of ERK, A549
[2] = test system: KRas-mediated Phosphorylation of ERK in PSN1 cells; experiment: Cisbio HTRF pERK assay, PSN1 cells; details: 3 hour compound, read-out: Inhibition (HTRF IC50 nM) of KRas-mediated Phosphorylation of ERK, PSN1
Procedure: Inhibition of KRas Phosphorylation of ERK (HTRF) by Exemplary Compounds of Formula (I) • Cisbio HTRF Advanced pERK Assay Catalog #64AERPEH • Cell: MKN1, PSN1 • Procedure: • Day 1: Seed 6,000 cells/well −25 μl/well in 384-well white solid bottom plate; RPM1_10% FBS.

[3] = test system: KRas-mediated Phosphorylation of ERK in H358 cells; experiment: Cisbio HTRF pERK assay, H358 cells; details: H358 cells, 3 hrs compound, read-out: Inhibition (HTRF IC50 nM) of KRas-mediated Phosphorylation of ERK, H358
[4] = test system: KRas-mediated Phosphorylation of ERK in HCT116 cells; experiment: Cisbio HTRF pERK assay, HCT116 cells; details: HCT116 cells, 3 hrs compound, read-out: Inhibition (HTRF IC50 nM) of KRas-mediated Phosphorylation of ERK, HCT116
[5] = test system: KRas-mediated Phosphorylation of ERK in H460 cells; experiment: Cisbio HTRF pERK assay, H460 cells; details: H460 cells, 3 hrs compound, read-out: Inhibition (HTRF IC50 nM) of KRas-mediated Phosphorylation of ERK, H460
[6] = test system: KRas-mediated Phosphorylation of ERK in H727 cells; experiment: Cisbio HTRF pERK assay, H727 cells; details: 3 hrs compound, read-out: Inhibition (HTRF IC50 nM) of KRas-mediated Phosphorylation of ERK, H727
[7] = test system: KRas-mediated Phosphorylation of ERK in AsPC-1 cells; experiment: Cisbio HTRF pERK assay, AsPC-1 cells; details: 3 hrs compound, read-out: Inhibition (HTRF IC50 nM) of KRas-mediated Phosphorylation of ERK, AsPC-1

| Structure (SMILES) | IC50 [1] | IC50 ([2]; Homo sapiens, PSN1, 3 h) | IC50 [3] | IC50 [4] | IC50 [5] | IC50 [6] | IC50 [7] | IC50 [2] | IC50 ([7]; Homo sapiens, ASPC1, 3 h) | IC50 ([1]; Homo sapiens, A549, 3 h) | IC50 ([3]; Homo sapiens, NCI-H358, 3 h) | IC50 ([4]; Homo sapiens, HCT-116, 3 h) | IC50 ([5]; Homo sapiens, NCI-H460, 3 h) | IC50 ([6]; Homo sapiens, NCI-H727, 3 h) |
| --- | --- | --- | --- | --- | --- | --- | --- | --- | --- | --- | --- | --- | --- | --- |
| CN(C)C(=O)c1cc2n(n1)CCCN(c1nc(OC[C@@]34CCCN3C/C(=C\F)C4)nc3c(F)c(-c4ccc(F)c5sc(N)c(C#N)c45)c(Cl)cc13)C2 (atropisomer, axis not shown) [Example 195, 5-((R)-7-(2-amino-3-cyano-7-fluorobenzo[b]thiophen-4-yl)-6-chloro-8-fluoro-2-(((S,Z)-2-(fluoromethylene)tetrahydro-1H-pyrrolizin-7a(5H)-yl)methoxy)quinazolin-4-yl)-N,N-dimethyl-5,6,7,8-tetrahydro-4H-pyrazolo[1,5-a][1,4]diazepine-2-carboxamide] | 2 nM | 115 nM | 1 nM | 6 nM | 2 nM | 2 nM |  |  |  |  |  |  |  |  |
| CN(C)C(=O)n1cc2c(n1)CCCN(c1nc(OC[C@@]34CCCN3C[C@H](F)C4)nc3c(F)c(-c4ccc(F)c5sc(N)c(C#N)c45)c(Cl)cc13)C2 (atropisomer, axis not shown; (aS)) [Example 186, 5-((S)-7-(2-amino-3-cyano-7-fluorobenzo[b]thiophen-4-yl)-6-chloro-8-fluoro-2-(((2R,7aS)-2-fluorotetrahydro-1H-pyrrolizin-7a(5H)-yl)methoxy)quinazolin-4-yl)-N,N-dimethyl-5,6,7,8-tetrahydropyrazolo[4,3-c]azepine-2(4H)-carboxamide] | 382 nM |  | 98 nM | 670 nM | 341 nM | 202 nM | 162 nM | > 10000 nM |  |  |  |  |  |  |
| N#Cc1c(N)sc2c(F)ccc(-c3c(Cl)cc4c(N5CCCn6nc(N)c(Cl)c6C5)nc(OC[C@@]56CCCN5C[C@H](F)C6)nc4c3F)c12 (atropisomer, axis not shown; (aS)) [Example 188, 2-amino-4-((R)-4-(2-amino-3-chloro-7,8-dihydro-4H-pyrazolo[1,5-a][1,4]diazepin-5(6H)-yl)-6-chloro-8-fluoro-2-(((2R,7aS)-2-fluorotetrahydro-1H-pyrrolizin-7a(5H)-yl)methoxy)quinazolin-7-yl)-7-fluorobenzo[b]thiophene-3-carbonitrile] | 14 nM |  | 2 nM | 18 nM | 13 nM | 10 nM | 3 nM | 544 nM |  |  |  |  |  |  |
| N#Cc1c(N)sc2c(F)ccc(-c3c(Cl)cc4c(N5CCCn6nc(N)c(Cl)c6C5)nc(OC[C@@]56CCCN5C[C@H](F)C6)nc4c3F)c12 (atropisomer, axis not shown; (aS)) [Example 189, 2-amino-4-((S)-4-(2-amino-3-chloro-7,8-dihydro-4H-pyrazolo[1,5-a][1,4]diazepin-5(6H)-yl)-6-chloro-8-fluoro-2-(((2R,7aS)-2-fluorotetrahydro-1H-pyrrolizin-7a(5H)-yl)methoxy)quinazolin-7-yl)-7-fluorobenzo[b]thiophene-3-carbonitrile] | 3350 nM |  | 327 nM | 2470 nM | 1530 nM | 882 nM | 472 nM | 7470 nM |  |  |  |  |  |  |
| C=C1CN2CCC[C@]2(COc2nc(N3CC4CCC(C3)N4)c3cc(Cl)c(-c4ccc(F)c5sc(N)c(C#N)c45)c(F)c3n2)C1 [Example 181, (S)-4-(4-((1R,5S)-3,8-diazabicyclo[3.2.1]octan-3-yl)-6-chloro-8-fluoro-2-(((R)-2-methylenetetrahydro-1H-pyrrolizin-7a(5H)-yl)methoxy)quinazolin-7-yl)-2-amino-7-fluorobenzo[b]thiophene-3-carbonitrile] | > 10000 nM |  | 4560 nM | 8030 nM | 9660 nM | 8500 nM | 950 nM | 5260 nM |  |  |  |  |  |  |
| C=C1CN2CCC[C@]2(COc2nc(N3CC4CCC(C3)N4)c3cc(Cl)c(-c4ccc(F)c5sc(N)c(C#N)c45)c(F)c3n2)C1 [Example 182, (R)-4-(4-((1R,5S)-3,8-diazabicyclo[3.2.1]octan-3-yl)-6-chloro-8-fluoro-2-(((R)-2-methylenetetrahydro-1H-pyrrolizin-7a(5H)-yl)methoxy)quinazolin-7-yl)-2-amino-7-fluorobenzo[b]thiophene-3-carbonitrile] | 377 nM |  | 136 nM | 114 nM | 207 nM | 1390 nM | 4 nM | 1820 nM |  |  |  |  |  |  |
| C=C1CN2CCC[C@@]2(COc2nc(N3CC4CCC(C3)N4)c3cc(Cl)c(-c4ccc(F)c5sc(N)c(C#N)c45)c(F)c3n2)C1 [Example 183, (S)-4-(4-((1R,5S)-3,8-diazabicyclo[3.2.1]octan-3-yl)-6-chloro-8-fluoro-2-(((S)-2-methylenetetrahydro-1H-pyrrolizin-7a(5H)-yl)methoxy)quinazolin-7-yl)-2-amino-7-fluorobenzo[b]thiophene-3-carbonitrile] | > 10000 nM |  | 6740 nM | 4800 nM | 8090 nM | > 10000 nM | 254 nM | 6150 nM |  |  |  |  |  |  |
| C=C1CN2CCC[C@@]2(COc2nc(N3CC4CCC(C3)N4)c3cc(Cl)c(-c4ccc(F)c5sc(N)c(C#N)c45)c(F)c3n2)C1 [Example 184, (R)-4-(4-((1R,5S)-3,8-diazabicyclo[3.2.1]octan-3-yl)-6-chloro-8-fluoro-2-(((S)-2-methylenetetrahydro-1H-pyrrolizin-7a(5H)-yl)methoxy)quinazolin-7-yl)-2-amino-7-fluorobenzo[b]thiophene-3-carbonitrile] | 160 nM |  | 40 nM | 39 nM | 82 nM | 610 nM | 1 nM | 701 nM |  |  |  |  |  |  |
| CN(C)C(=O)n1cc2c(n1)CCCN(c1nc(OC[C@@]34CCCN3C[C@H](F)C4)nc3c(F)c(-c4ccc(F)c5sc(N)c(C#N)c45)c(Cl)cc13)C2 [Example 185, 5-((R)-7-(2-amino-3-cyano-7-fluorobenzo[b]thiophen-4-yl)-6-chloro-8-fluoro-2-(((2R,7aS)-2-fluorotetrahydro-1H-pyrrolizin-7a(5H)-yl)methoxy)quinazolin-4-yl)-N,N-dimethyl-5,6,7,8-tetrahydropyrazolo[4,3-c]azepine-2(4H)-carboxamide] | 12 nM |  | 1 nM | 17 nM | 9 nM | 3 nM | 2 nM | 1800 nM |  |  |  |  |  |  |
| N#Cc1c(N)sc2c(F)ccc(-c3c(Cl)cc4c(N5CCCn6nc(N)cc6C5)nc(OC[C@@]56CCCN5C[C@H](F)C6)nc4c3F)c12 [Example 187, 2-amino-4-(4-(2-amino-7,8-dihydro-4H-pyrazolo[1,5-a][1,4]diazepin-5(6H)-yl)-6-chloro-8-fluoro-2-(((2R,7aS)-2-fluorotetrahydro-1H-pyrrolizin-7a(5H)-yl)methoxy)quinazolin-7-yl)-7-fluorobenzo[b]thiophene-3-carbonitrile] |  | 1060 nM |  |  |  |  |  |  | 41 nM | 106 nM | 12 nM | 176 nM | 78 nM | 148 nM |
| N#Cc1c(N)sc2c(F)ccc(-c3c(Cl)cc4c(N5C[C@@H]6C(=O)NC(=O)[C@@H]6C5)nc(OC[C@@]56CCCN5C[C@H](F)C6)nc4c3F)c12 [Example 200, 2-amino-4-(6-chloro-4-((3aR,6aS)-4,6-dioxohexahydropyrrolo[3,4-c]pyrrol-2(1H)-yl)-8-fluoro-2-(((2R,7aS)-2-fluorotetrahydro-1H-pyrrolizin-7a(5H)-yl)methoxy)quinazolin-7-yl)-7-fluorobenzo[b]thiophene-3-carbonitrile] |  |  |  |  |  |  |  |  | 2740 nM | > 10000 nM | 1680 nM | 4560 nM | 2760 nM | 4730 nM |
